In patent US20240392315A1, “COMPOSITION FOR CELL ADDITION” (priority 2021, published 2024):
Where two headings read alike, the source gives them in different places.

Key:
HEK293 cells [1] = type: cell-based, human
HEK293 cells [2] = details: for Full rate / AAV2 particle number: ethanol 0.56 v/v %, AAV2 produced in cells
Experimental: AAV2 particles (whole particles with and without AAV2 genome) extracted from the culture supernatant and producing cells were measured using a commercially available AAV2 ELISA kit (PROGENE, AAV2 Titration ELISA) and according to the instructions of the kit.
The proportion (Full rate) of AAV2 particles containing the integrated AAV2 genome was calculated from the total number of AAV2 particles quantified by the ELISA method and the quantitative value of particles containing the integrated AAV2 genome obtained from ddPCR.

AAV2-producing cells = system: AAV2-producing cells
Experimental: In order to identify metabolic changes that occurred in AAV2-producing cells when ethanol was added and important factors, intracellular proteins were extracted from cells with and without addition of ethanol during AAV2 production, the extracted proteins were analyzed by liquid chromatography-mass spectrometry (LC-MS) and proteins whose expression increased or decreased during AAV2 production due to the presence or absence of ethanol addition were analyzed.

HEK293 cells [3] = details: for culture supernatant genome titer / cell lysate genome titer / cell lysate genome integrity / culture supernatant genome integrity: ethanol 0.28 v/v %; for culture supernatant genome titer: 3 days after transfection
Description: In the same manner as in Example 1, “1.

HEK293 cells [4] = details: ethanol amounts where intracellular AAV2 genome titer is higher than control
[5] = 48 and 72 hours after transfection of plasmid DNA for AAV2 production
[6] = 48 hr, protein vs control (no ethanol addition)
[7] = 72 hr, protein vs control (no ethanol addition)
[8] = Downregulated pathway when ethanol was added, time after transfection
[9] = Upregulated pathway when ethanol was added, time after transfection

Experimental for Hela cells: AAV2 was extracted from the culture supernatant and producing cells and an AAV2 solution was prepared. Three days after adding the AAV2 solution to cultured Hela cells, the number of cells expressing the GFP protein derived from the added AAV2 was measured, and the number of cells infected by the AAV2 solution per mL was calculated.

Structure (SMILES): CO [Methanol, methanol]
- genome titer (HEK293 cells [1]; test (4), additive 0.33 v/v %, AAV2 in cells, control 2.40E+07): 2.94E+07 vg/μL
- genome integrity (HEK293 cells [1]; test (4), additive 0.33 v/v %, AAV2 in cells, control 53.4): 58.4%

Structure (SMILES): CCO [ethanol]
- genome titer of AAV2 both in cells and in the culture supernatant (HEK293 cells [1]; ethanol 0.09 to 2.2 V/V %, particularly at not exceeding 1.1 v/v %, vs no ethanol, FIG. 1A, 1B): improved
- genome integrity (HEK293 cells [1]; ethanol 0.56 v/v %, intracellular AAV2 extract, control 45.6): 54.7%
- genome titer (HEK293 cells [1]; ethanol 0.56 v/v %, intracellular AAV2 extract, ddPCR primer for ITR region, control 4.40E+07): 6.59E+07 vg/μL
- percentage of integrated genome in AAV2 in the producing cells (HEK293 cells [1]; ethanol added within the range of about 2v/v %, FIG. 2A): clearly higher
- proportion of the integrated genome in AAV2 (HEK293 cells [1]; ethanol addition during AAV2 production, FIG. 2A, 2B): improved
- genome titer (HEK293 cells [1]; test (1), ethanol 0.56 v/v %, AAV2 produced in cells, control 2.26E+07): 5.05E+07 vg/μL
- genome titer (HEK293 cells [1]; test (2), ethanol 0.56 v/v %, AAV2 produced in cells, control 3.23E+07): 3.81E+07 vg/μL
- rate of incorporation of AAV2-derived genome into the produced AAV2 capsid (HEK293 cells [2]; AAV2 produced with addition of ethanol vs control, Table 3): higher
- Full rate (HEK293 cells [2]; test (1), control 2.30): 3.58%
- AAV2 particle number (HEK293 cells [2]; test (1), control 9.86E+11): 1.41E+12 particles/mL
- AAV2 particle number (HEK293 cells [2]; test (2), control 1.04E+12): 1.13E+12 particles/mL
- Full rate (HEK293 cells [2]; test (2), control 3.12): 3.38%
- pathway change, CLEAR Signaling Pathway (AAV2-producing cells; [5]): activated
- pathway change, Estrogen Receptor Signaling (AAV2-producing cells; [5]): activated
- pathway change, Interferon Signaling (AAV2-producing cells; [5]): suppressed
- pathway change, NAD Signaling (AAV2-producing cells; [5]): activated
- pathway change, Necroptosis Signaling Pathway (AAV2-producing cells; [5]): suppressed
- pathway change, Protein Kinase A Signaling (AAV2-producing cells; [5]): activated
- pathway change, Role of Hypercytokinemia/hyperchemokinemia in the Pathogenesis of influenza (AAV2-producing cells; [5]): suppressed
- pathway change, Superpathway of Cholesterol Biosynthesis (AAV2-producing cells; [5]): activated
- Fold Change CAPN5 (AAV2-producing cells; [6]): 2.10
- Fold Change DUSP9 (AAV2-producing cells; [6]): −1.30
- Fold Change GLUL (AAV2-producing cells; [6]): −1.80
- Fold Change GNG2 (AAV2-producing cells; [6]): 1.75
- Fold Change GNPTG (AAV2-producing cells; [6]): −1.59
- Fold Change H1-4 (AAV2-producing cells; [6]): −1.33
- Fold Change HPS5 (AAV2-producing cells; [6]): 100
- Fold Change IFI35 (AAV2-producing cells; [6]): 100
- Fold Change IFIT1 (AAV2-producing cells; [6]): −1.60
- Fold Change IFIT3 (AAV2-producing cells; [6]): −1.73
- Fold Change IFITM3 (AAV2-producing cells; [6]): 1.19
- Fold Change ISG15 (AAV2-producing cells; [6]): −1.77
- Fold Change MED14 (AAV2-producing cells; [6]): 1.16
- Fold Change MERTK (AAV2-producing cells; [6]): 1.44
- Fold Change MITF (AAV2-producing cells; [6]): −1.33
- Fold Change NAGLU (AAV2-producing cells; [6]): 100
- Fold Change NGFR (AAV2-producing cells; [6]): 2.60
- Fold Change NPRL3 (AAV2-producing cells; [6]): 100
- Fold Change PKN (paxillin) (AAV2-producing cells; [6]): −1.31
- Fold Change PRKAG2 (AAV2-producing cells; [6]): 100
- Fold Change SMAD3 (AAV2-producing cells; [6]): 100
- Fold Change TIMM10 (AAV2-producing cells; [6]): −8.00
- Fold Change TNIP1 (AAV2-producing cells; [6]): −100
- Fold Change TRPM1 (AAV2-producing cells; [6]): −2.58
- Fold Change BAX (AAV2-producing cells; [7]): 1.11
- Fold Change CAPN5 (AAV2-producing cells; [7]): 1.51
- Fold Change CCL5 (AAV2-producing cells; [7]): −1.79
- Fold Change DHCR24 (AAV2-producing cells; [7]): −1.03
- Fold Change DXO (AAV2-producing cells; [7]): 100
- Fold Change FADD (AAV2-producing cells; [7]): 1.54
- Fold Change GLUL (AAV2-producing cells; [7]): −1.91
- Fold Change GNG2 (AAV2-producing cells; [7]): 1.60
- Fold Change HADHA (AAV2-producing cells; [7]): 1.23
- Fold Change HADHB (AAV2-producing cells; [7]): 1.29
- Fold Change HMGCS1 (AAV2-producing cells; [7]): −1.21
- Fold Change HPS5 (AAV2-producing cells; [7]): 100
- Fold Change IFI35 (AAV2-producing cells; [7]): −100
- Fold Change IFIT1 (AAV2-producing cells; [7]): −1.53
- Fold Change IFIT3 (AAV2-producing cells; [7]): −1.51
- Fold Change INS (AAV2-producing cells; [7]): 1.58
- Fold Change IRE3 (interferon regulatory factor 3) (AAV2-producing cells; [7]): 1.09
- Fold Change ISG15 (AAV2-producing cells; [7]): −1.52
- Fold Change MED6 (AAV2-producing cells; [7]): −100
- Fold Change MED14 (AAV2-producing cells; [7]): 1.07
- Fold Change MITF (AAV2-producing cells; [7]): −1.28
- Fold Change MSMG1 (methylsterol monooxygenase 1) (AAV2-producing cells; [7]): −1.07
- Fold Change MT-CYB (AAV2-producing cells; [7]): 3.49
- Fold Change MT-ND4 (AAV2-producing cells; [7]): −1.65
- Fold Change NAGLU (AAV2-producing cells; [7]): −1.74
- Fold Change NFKB1 (AAV2-producing cells; [7]): 1.07
- Fold Change NGFR (AAV2-producing cells; [7]): 2.35
- Fold Change NTN1 (AAV2-producing cells; [7]): −1.60
- Fold Change POLRZI (RNA polymerase II subunit I) (AAV2-producing cells; [7]): −1.42
- Fold Change PPP1R140 (protein phosphatase 1 regulatory inhibitor subunit 14C) (AAV2-producing cells; [7]): −1.29
- Fold Change PRKAG2 (AAV2-producing cells; [7]): 100
- Fold Change PTPRK (AAV2-producing cells; [7]): −1.31
- Fold Change RAF1 (AAV2-producing cells; [7]): −1.29
- Fold Change RXRA (AAV2-producing cells; [7]): −1.40
- Fold Change SC5D (AAV2-producing cells; [7]): 100
- Fold Change SLC29A1 (AAV2-producing cells; [7]): −1.28
- Fold Change TIMM10 (AAV2-producing cells; [7]): 1.51
- Fold Change TNIP1 (AAV2-producing cells; [7]): −100
- Fold Change TOMM6 (AAV2-producing cells; [7]): 1.63
- Fold Change TOMM7 (AAV2-producing cells; [7]): −1.40
- Fold Change TP53 (AAV2-producing cells; [7]): −1.18
- Regulated timing, Interferon Signaling (AAV2-producing cells; [8]): 48 hr, 72 hr
- Regulated timing, Necroptosis Signaling Pathway (AAV2-producing cells; [8]): 48 hr, 72 hr
- Regulated timing, Role of Hypercytokinemia/hyperchemokinemia in the Pathogenesis of influenza (AAV2-producing cells; [8]): 72 h
- Regulated timing, Activation of IRF by Cytosolic Pattern recognition receptors (AAV2-producing cells; Pathway where change was identified when ethanol was added, time after transfection): 72 h
- Regulated timing, CLEAR Signaling Pathway (AAV2-producing cells; [9]): 48 hr, 72 hr
- Regulated timing, Estrogen Receptor Signaling (AAV2-producing cells; [9]): 72 h
- Regulated timing, NAD Signaling (AAV2-producing cells; [9]): 72 h
- Regulated timing, Protein Kinase A Signaling (AAV2-producing cells; [9]): 48 hr, 72 hr
- Regulated timing, Superpathway of Cholesterol Biosynthesis (AAV2-producing cells; [9]): 72 h
- culture supernatant genome titer (HEK293 cells [3]; AAV1, control 3.34E+06): 5.09E+06 vg/μL
- cell lysate genome titer (HEK293 cells [3]; AAV1, control 2.67E+06): 4.67E+06 vg/μL
- cell lysate genome integrity (HEK293 cells [3]; AAV1, control 43.3): 54.2%
- culture supernatant genome integrity (HEK293 cells [3]; AAV1, control 49.3): 58.6%
- culture supernatant genome titer (HEK293 cells [3]; AAV6, control 1.20E+05): 1.08E+05 vg/μL
- cell lysate genome titer (HEK293 cells [3]; AAV6, control 1.60E+07): 2.05E+07 vg/μL
- culture supernatant genome integrity (HEK293 cells [3]; AAV6, control 23.7): 28.6%
- cell lysate genome integrity (HEK293 cells [3]; AAV6, control 51.8): 55.1%
- amount of AAV1 produced (genome titer) and genome integrity, in culture supernatant and within cells (HEK293 cells [3]; when ethanol was added): improved
- amount of AAV6 produced within cells (genome titer) (HEK293 cells [3]; when ethanol was added): improved
- genome integrity of AAV6 in culture supernatant and within cells (HEK293 cells [3]; when ethanol was added): improved
- infection titer (infecting cells and expressing GFP per volume of lysate) (Hela cells; AAV2 vector produced with ethanol addition vs control, Table 4): high
- infection titer (Hela cells; ethanol 0.56 v/v %, intracellular AAV2 extract, same amount of genome titer, control 1.36E+08): 1.63E+08 ifu/mL
- cell proliferation rate during AAV2 production (HEK293 cells [4]): equivalent to or higher than in the control condition
- viability of the producing cells on day 3 after transfection (HEK293 cells [4]; FIG. 1C): maintained higher than in the control condition
